Laboratory results taken from publication PMC9147192, “Small Molecule Arranged Thermal Proximity Coaggregation (smarTPCA)—A Novel Approach to Characterize Protein–Protein Interactions in Living Cells by Similar Isothermal Dose–Responses” (International Journal of Molecular Sciences, 2022).

Molecular target: T1, PFAS (Homo sapiens, UniProt O15067)
T1 construct: endogenous in cells; host or cells: HL-60 (ATCC CCL-240)
T1 sequence (O15067 1-1338): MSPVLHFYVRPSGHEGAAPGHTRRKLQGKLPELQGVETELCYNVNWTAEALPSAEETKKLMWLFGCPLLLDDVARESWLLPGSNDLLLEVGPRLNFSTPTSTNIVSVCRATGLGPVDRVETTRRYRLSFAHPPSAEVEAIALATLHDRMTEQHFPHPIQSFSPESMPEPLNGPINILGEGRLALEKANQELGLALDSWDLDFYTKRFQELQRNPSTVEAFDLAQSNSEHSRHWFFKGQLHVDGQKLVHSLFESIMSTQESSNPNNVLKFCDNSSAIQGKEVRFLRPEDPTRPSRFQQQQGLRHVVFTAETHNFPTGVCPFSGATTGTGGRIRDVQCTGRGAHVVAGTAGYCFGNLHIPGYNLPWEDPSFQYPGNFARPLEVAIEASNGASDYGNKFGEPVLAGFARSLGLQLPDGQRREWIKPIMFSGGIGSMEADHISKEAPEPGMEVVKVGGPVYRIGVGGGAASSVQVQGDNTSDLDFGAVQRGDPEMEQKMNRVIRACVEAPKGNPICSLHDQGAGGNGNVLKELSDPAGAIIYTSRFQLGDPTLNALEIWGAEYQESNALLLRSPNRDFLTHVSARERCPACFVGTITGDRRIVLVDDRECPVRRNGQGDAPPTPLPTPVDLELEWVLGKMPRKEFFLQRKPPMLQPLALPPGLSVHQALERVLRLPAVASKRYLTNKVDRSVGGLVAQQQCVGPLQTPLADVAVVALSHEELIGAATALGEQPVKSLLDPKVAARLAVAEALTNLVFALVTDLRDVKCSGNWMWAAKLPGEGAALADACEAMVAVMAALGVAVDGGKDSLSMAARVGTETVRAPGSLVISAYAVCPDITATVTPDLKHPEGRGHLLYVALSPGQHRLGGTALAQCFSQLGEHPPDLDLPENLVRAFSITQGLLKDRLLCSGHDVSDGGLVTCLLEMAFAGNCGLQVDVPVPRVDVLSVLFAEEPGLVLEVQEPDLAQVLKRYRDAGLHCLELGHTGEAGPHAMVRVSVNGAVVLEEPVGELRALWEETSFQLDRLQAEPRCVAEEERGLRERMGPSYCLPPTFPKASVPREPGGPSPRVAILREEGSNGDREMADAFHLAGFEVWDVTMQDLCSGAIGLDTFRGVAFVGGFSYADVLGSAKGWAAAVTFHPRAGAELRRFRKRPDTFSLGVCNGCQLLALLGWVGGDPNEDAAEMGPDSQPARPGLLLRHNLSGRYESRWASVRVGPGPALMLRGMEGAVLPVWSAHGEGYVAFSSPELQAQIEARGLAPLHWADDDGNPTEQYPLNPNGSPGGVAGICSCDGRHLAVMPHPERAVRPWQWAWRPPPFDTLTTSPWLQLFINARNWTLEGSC
Assay: TPP-CCR in living HL-60 cells
Type: cell-based

[1] = living HL-60 cells, […] °C, TMT-MS

Cc1cnc(Nc2ccc(F)cc2Cl)nc1-c1c[nH]c(C(=O)N[C@H](CO)c2cccc(Cl)c2)c1 [ERK 11e]
Hill slope (TPP-CCR, living cells, PFAS): 0.30 | EC50 [1]: 1170 nM | Hill slope (PFAS) [1]: 0.30
